Test system: cells of the present invention (Metaheps)
Assay: Long-term toxicity in the cells of the present invention (LDH release over 15 days)
Assay type: cell-based, human
Conditions: Metaheps incubated 15 days with low concentrations (diclofenac 50 μM, acetaminophen 500 μM)
Method: On incubation days 1, 3, 6, 8, 10, 13 and 15 medium samples were drawn and LDH activity in media was determined using the Cytotoxicity Kit from Promega. LDH release was calculated in % as 100×(LDH in media/LDH media+LDH lysate).

| SMILES | toxicity in Metaheps as measured by LDH release |
| --- | --- |
| CC(=O)Nc1ccc(O)cc1 [acetaminophen] | acute toxicity |
| O=C(O)Cc1ccccc1Nc1c(Cl)cccc1Cl [diclofenac] | long-term toxicity |
